From patent US10172868B2, “Substituted quinazolines for inhibiting kinase activity” (NeuPharma, Inc., priority 2013, dated 2019)

Experiments:
EGFR (ErbB1) = EGFR (ErbB1) (Homo sapiens (Human), UniProt P00533); experiment: Z'-LYTE kinase inhibition assay, EGFR; type: biochemical; conditions: read-out: % inhibition against EGFR (Compound at 0.041 μM)
Procedure: Inhibitory activities of compounds against BTK, EGFR and EGFR mutants (EGFR L858R, EGFR T790M, EGFR L858R/T790M), FGFR1, FGFR2, JAK2, JAK3 and KDR were measured by Invitrogen using Z'-LYTE® Method as briefly described in the following. Test Compounds are screened in 1% DMSO (final) in the well. For 10 point titrations, 3-fold serial dilutions are conducted from the starting concentration. All ATP Solutions are diluted to a 4× working concentration in Kinase Buffer (50 mM HEPES pH 7.5, 0.01% BRIJ-35, 10 mM MgCl2, 1 mM EGTA). Peptide/Kinase Mixtures are diluted to a 2× working concentration in the appropriate Kinase Buffers as described below. (i) Peptide/Kinase Mixtures for Measurement of EGFR (ErbB1): The 2×EGFR (ErbB1)/[…] mixture is prepared in 50 mM HEPES pH 7.5, 0.01% BRIJ-35, 10 mM MgCl2. 4 mM MnCl2, 1 mM EGTA, 2 mM DTT. The final 10 μL Kinase Reaction consists of 1.1-5.25 ng EGFR (ErbB1) and 2 μM […] in 50 mM HEPES pH 7.5, 0.01% BRIJ-35, 10 mM MgCl2, 2 mM MnCl2. 1 mM EGTA, 1 mM DTT. After the 1 hour Kinase Reaction incubation, 5 μL of a 1:64 dilution of Development Reagent B is added. Reaction starts by 30-second shaking of mixture consisting of 2.5 μL 4× test compound, […] 2× kinase reaction mixture and 2.5 μL 4×ATP Solution on Bar-coded Corning, low volume NBS, black 384-well plate (Corning Cat. #3676). Then the mixture is incubated for 60-minute at room temperature for the kinase reaction, followed by addition of 5 μL of a 1:1024 dilution of development reagent A and 30-second plate shake. The mixture is then incubated for another 60-minute at room temperature for development reaction. Finally fluorescence is read by plate reader. To determine IC50 of a compound against EGFR, EGFR mutant and other kinases, a series of concentrations of the compound were tested for the inhibition.

EGFR (ErbB1) T790M L858R = EGFR (ErbB1) T790M L858R (Homo sapiens (Human), UniProt P00533, L858R/T790M); experiment: Z'-LYTE kinase inhibition assay, EGFR L858R/T790M; type: biochemical; conditions: read-out: % inhibition against EGFR L858R/T790M (Compound at 0.0137 μM)
Procedure: Inhibitory activities of compounds against BTK, EGFR and EGFR mutants (EGFR L858R, EGFR T790M, EGFR L858R/T790M), FGFR1, FGFR2, JAK2, JAK3 and KDR were measured by Invitrogen using Z'-LYTE® Method as briefly described in the following. Test Compounds are screened in 1% DMSO (final) in the well. For 10 point titrations, 3-fold serial dilutions are conducted from the starting concentration. All ATP Solutions are diluted to a 4× working concentration in Kinase Buffer (50 mM HEPES pH 7.5, 0.01% BRIJ-35, 10 mM MgCl2, 1 mM EGTA). Peptide/Kinase Mixtures are diluted to a 2× working concentration in the appropriate Kinase Buffers as described below. (iv) Peptide/Kinase Mixtures for Measurement of EGFR (ErbB1) T790M L858R: The 2×EGFR (ErbB1) […] mixture is prepared in 50 mM HEPES pH 6.5, 0.01% BRIJ-35, 10 mM MgCl2, 1 mM EGTA, 0.02% NaN3. […] After the 1 hour Kinase Reaction incubation, 5 μL of a 1:64 dilution of Development Reagent B is added. Reaction starts by 30-second shaking of mixture consisting of 2.5 μL 4× test compound, […] 2× kinase reaction mixture and 2.5 μL 4×ATP Solution on Bar-coded Corning, low volume NBS, black 384-well plate (Corning Cat. #3676). Then the mixture is incubated for 60-minute at room temperature for the kinase reaction, followed by addition of 5 μL of a 1:1024 dilution of development reagent A and 30-second plate shake. The mixture is then incubated for another 60-minute at room temperature for development reaction. Finally fluorescence is read by plate reader. To determine IC50 of a compound against EGFR, EGFR mutant and other kinases, a series of concentrations of the compound were tested for the inhibition.

H1975 cells = experiment: Inhibition of cancer cell growth, MTT assay, H1975; conditions: Homo sapiens, NCI-H1975, 72 h, read-out: IC50 in H1975 cells

Sequence of EGFR (ErbB1) T790M L858R (P00533 25-1210 T790M/L858R): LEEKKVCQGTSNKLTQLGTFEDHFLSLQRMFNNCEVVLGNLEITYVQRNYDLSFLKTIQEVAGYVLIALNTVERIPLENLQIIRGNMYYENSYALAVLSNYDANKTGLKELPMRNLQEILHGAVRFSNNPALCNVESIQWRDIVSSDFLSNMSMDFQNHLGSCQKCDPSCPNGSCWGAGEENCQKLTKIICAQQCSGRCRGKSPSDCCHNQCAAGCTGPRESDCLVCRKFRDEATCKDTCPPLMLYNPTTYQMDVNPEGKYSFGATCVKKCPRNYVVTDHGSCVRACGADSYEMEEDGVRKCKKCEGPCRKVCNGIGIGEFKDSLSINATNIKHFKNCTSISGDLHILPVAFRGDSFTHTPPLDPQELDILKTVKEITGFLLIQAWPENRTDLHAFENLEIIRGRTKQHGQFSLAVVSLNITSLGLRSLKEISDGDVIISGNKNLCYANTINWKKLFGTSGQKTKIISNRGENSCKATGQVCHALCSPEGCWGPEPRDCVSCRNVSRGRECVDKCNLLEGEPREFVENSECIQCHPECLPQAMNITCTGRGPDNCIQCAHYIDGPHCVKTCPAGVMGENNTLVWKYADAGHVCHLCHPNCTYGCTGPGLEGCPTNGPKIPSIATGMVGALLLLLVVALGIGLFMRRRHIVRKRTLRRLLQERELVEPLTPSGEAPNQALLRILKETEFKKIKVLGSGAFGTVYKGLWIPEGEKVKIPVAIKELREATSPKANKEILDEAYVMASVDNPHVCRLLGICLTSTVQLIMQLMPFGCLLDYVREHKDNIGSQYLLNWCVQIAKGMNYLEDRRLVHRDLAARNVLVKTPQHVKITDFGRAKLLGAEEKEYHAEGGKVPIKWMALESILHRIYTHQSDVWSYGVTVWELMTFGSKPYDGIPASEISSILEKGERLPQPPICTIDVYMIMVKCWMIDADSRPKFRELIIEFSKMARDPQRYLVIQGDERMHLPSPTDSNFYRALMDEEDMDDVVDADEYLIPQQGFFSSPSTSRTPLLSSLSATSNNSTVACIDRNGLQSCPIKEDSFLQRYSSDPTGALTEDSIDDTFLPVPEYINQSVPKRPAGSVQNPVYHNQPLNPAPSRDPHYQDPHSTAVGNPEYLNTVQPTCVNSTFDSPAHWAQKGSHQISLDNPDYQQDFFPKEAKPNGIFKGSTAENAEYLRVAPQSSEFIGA
Sequence of EGFR (ErbB1) (P00533 25-1210): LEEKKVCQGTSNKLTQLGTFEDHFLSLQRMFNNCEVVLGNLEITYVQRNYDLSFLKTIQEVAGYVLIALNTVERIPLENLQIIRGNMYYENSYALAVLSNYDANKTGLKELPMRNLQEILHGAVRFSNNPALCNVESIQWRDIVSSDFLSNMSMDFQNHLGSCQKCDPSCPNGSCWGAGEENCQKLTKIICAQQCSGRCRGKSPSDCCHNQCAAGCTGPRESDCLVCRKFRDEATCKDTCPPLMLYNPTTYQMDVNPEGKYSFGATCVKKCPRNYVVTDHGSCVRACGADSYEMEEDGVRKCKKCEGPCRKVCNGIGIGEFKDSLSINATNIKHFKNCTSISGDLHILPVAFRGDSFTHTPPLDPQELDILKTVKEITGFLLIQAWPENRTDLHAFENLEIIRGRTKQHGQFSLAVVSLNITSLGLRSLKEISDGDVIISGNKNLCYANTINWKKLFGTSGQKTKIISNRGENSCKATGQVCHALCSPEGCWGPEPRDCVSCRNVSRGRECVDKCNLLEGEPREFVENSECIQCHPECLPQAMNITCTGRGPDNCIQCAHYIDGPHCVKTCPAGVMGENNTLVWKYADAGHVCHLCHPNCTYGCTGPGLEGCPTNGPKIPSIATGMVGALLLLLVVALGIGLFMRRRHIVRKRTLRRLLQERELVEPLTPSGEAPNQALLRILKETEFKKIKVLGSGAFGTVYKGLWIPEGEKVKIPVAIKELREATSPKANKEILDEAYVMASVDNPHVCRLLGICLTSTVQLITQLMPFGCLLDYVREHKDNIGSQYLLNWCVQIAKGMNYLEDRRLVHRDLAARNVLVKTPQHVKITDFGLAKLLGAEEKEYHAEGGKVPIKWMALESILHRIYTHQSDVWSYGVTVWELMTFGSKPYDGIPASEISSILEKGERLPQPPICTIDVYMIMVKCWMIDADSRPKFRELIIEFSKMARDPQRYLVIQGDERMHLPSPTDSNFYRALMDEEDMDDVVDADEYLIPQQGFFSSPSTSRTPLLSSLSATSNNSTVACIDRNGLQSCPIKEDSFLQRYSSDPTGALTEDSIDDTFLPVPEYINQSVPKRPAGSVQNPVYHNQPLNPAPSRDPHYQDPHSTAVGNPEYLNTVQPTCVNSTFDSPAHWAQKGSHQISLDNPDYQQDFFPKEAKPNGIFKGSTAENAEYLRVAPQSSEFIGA

For C=CC(=O)Nc1cccc(-c2cccc3cnc(Nc4ccc(N5CCN(C(=O)CO)CC5)cc4)nc23)c1 [Example C082, N-(3-(2-((4-(4-(2-hydroxyacetyl)piperazin-1-yl)phenyl)amino)quinazolin-8-yl)phenyl)acrylamide], the inhibition at 0.041 µM (EGFR (ErbB1)) was under 50%, the inhibition at 0.0137 µM (EGFR (ErbB1) T790M L858R) was over 50% and the IC50 (H1975 cells) was 100 to 500 nM.

Compound C=CC(=O)Nc1cccc(-c2cccc3cnc(Nc4ccc(N5CCN(C(=O)NC)CC5)cc4)nc23)c1 [Example C083, 4-(4-((8-(3-acrylamidophenyl)quinazolin-2-yl)amino)phenyl)-N-methylpiperazine-1-carboxamide] has an inhibition at 0.041 µM (EGFR (ErbB1)) of under 50%, an inhibition at 0.0137 µM (EGFR (ErbB1) T790M L858R) of over 50% and an IC50 (H1975 cells) of 100 to 500 nM.

C=CC(=O)Nc1cccc(-c2cccc3cnc(Nc4ccc(N5CCN(C(=O)CC)CC5)cc4)nc23)c1 [Example C084, N-(3-(2-((4-(4-propionylpiperazin-1-yl)phenyl)amino)quinazolin-8-yl)phenyl)acrylamide] was tested, and the inhibition at 0.041 µM (EGFR (ErbB1)) was under 50%, the inhibition at 0.0137 µM (EGFR (ErbB1) T790M L858R) was over 50% and the IC50 (H1975 cells) was 100 to 500 nM.

C=CC(=O)Nc1cccc(-c2cccc3cnc(Nc4cnc(N5CCN(C)CC5)c(C#N)c4)nc23)c1 [Example C086, N-(3-(2-((5-cyano-6-(4-methylpiperazin-1-yl)pyridin-3-yl)amino)quinazolin-8-yl)phenyl)acrylamide] gave an inhibition at 0.041 µM (EGFR (ErbB1)) of under 50%, an inhibition at 0.0137 µM (EGFR (ErbB1) T790M L858R) of over 50% and an IC50 (H1975 cells) of 100 to 500 nM.

In the case of C=CC(=O)Nc1cccc(-c2cccc3cnc(Nc4ccc(N5CCN(C)C(C(=O)OC)C5)cc4)nc23)c1 (stereo not drawn) [Example C089, methyl 4-(4-((8-(3-acrylamidophenyl)quinazolin-2-yl)amino)phenyl)-1-methylpiperazine-2-carboxylate], the inhibition at 0.041 µM (EGFR (ErbB1)) is reported as under 50%, the inhibition at 0.0137 µM (EGFR (ErbB1) T790M L858R) is reported as under 50% and the IC50 (H1975 cells) is reported as 100 to 500 nM.

Work on C=CC(=O)Nc1cccc(-c2cccc3cnc(Nc4ccc(N5CCN(C)C(C(=O)O)C5)cc4)nc23)c1 (stereo not drawn) [Example C090, 4-(4-((8-(3-acrylamidophenyl)quinazolin-2-yl)amino)phenyl)-1-methylpiperazine-2-carboxylic acid] yielded an inhibition at 0.041 µM (EGFR (ErbB1)) of under 50%, an inhibition at 0.0137 µM (EGFR (ErbB1) T790M L858R) of over 50% and an IC50 (H1975 cells) of 100 to 500 nM.

Work on C=CC(=O)Nc1cccc(-c2cccc3cnc(Nc4ccc(N5CCN(S(C)(=O)=O)CC5)cc4)nc23)c1 [Example C092, N-(3-(2-((4-(4-(methylsulfonyl)piperazin-1-yl)phenyl)amino)quinazolin-8-yl)phenyl)acrylamide] yielded an inhibition at 0.041 µM (EGFR (ErbB1)) of under 50%, an inhibition at 0.0137 µM (EGFR (ErbB1) T790M L858R) of under 50% and an IC50 (H1975 cells) of 100 to 500 nM.

In the case of C=CC(=O)Nc1cccc(-c2cccc3cnc(Nc4ccc(N5CCN(C)C(C(N)=O)C5)cc4)nc23)c1 (stereo not drawn) [Example C093, 4-(4-((8-(3-acrylamidophenyl)quinazolin-2-yl)amino)phenyl)-1-methylpiperazine-2-carboxamide], the inhibition at 0.041 µM (EGFR (ErbB1)) is reported as under 50%, the inhibition at 0.0137 µM (EGFR (ErbB1) T790M L858R) is reported as over 50% and the IC50 (H1975 cells) is reported as 100 to 500 nM.

C=CC(=O)Nc1cccc(-c2cccc3cnc(Nc4ccc(-n5ccnc5)cc4)nc23)c1 [Example C094, N-(3-(2-((4-(1H-imidazol-1-yl)phenyl)amino)quinazolin-8-yl)phenyl)acrylamide] showed an inhibition at 0.041 µM (EGFR (ErbB1)) of under 50%, an inhibition at 0.0137 µM (EGFR (ErbB1) T790M L858R) of under 50% and an IC50 (H1975 cells) of 100 to 500 nM.

Compound C=CC(=O)Nc1cccc(-c2cccc3cnc(Nc4ccc(N5CCOCC5=O)cc4)nc23)c1 [Example C095, N-(3-(2-((4-(3-oxomorpholino)phenyl)amino)quinazolin-8-yl)phenyl)acrylamide] has an inhibition at 0.041 µM (EGFR (ErbB1)) of under 50%, an inhibition at 0.0137 µM (EGFR (ErbB1) T790M L858R) of under 50% and an IC50 (H1975 cells) of 100 to 500 nM.

Compound C=CC(=O)Nc1cccc(-c2cccc3cnc(Nc4ccc(N5CCCC5=O)cc4)nc23)c1 [Example C096, N-(3-(2-((4-(2-oxopyrrolidin-1-yl)phenyl)amino)quinazolin-8-yl)phenyl)acrylamide] has an inhibition at 0.041 µM (EGFR (ErbB1)) of under 50%, an inhibition at 0.0137 µM (EGFR (ErbB1) T790M L858R) of under 50% and an IC50 (H1975 cells) of under 100 nM.

C=CC(=O)Nc1cccc(-c2cccc3cnc(Nc4ccc(N5CCNC5=O)cc4)nc23)c1 [Example C097, N-(3-(2-((4-(2-oxoimidazolidin-1-yl)phenyl)amino)quinazolin-8-yl)phenyl)acrylamide] gave an inhibition at 0.041 µM (EGFR (ErbB1)) of under 50%, an inhibition at 0.0137 µM (EGFR (ErbB1) T790M L858R) of under 50% and an IC50 (H1975 cells) of 100 to 500 nM.

Compound C=CC(=O)Nc1cccc(-c2cccc3cnc(Nc4ccc(N5CCC(O)C5)cc4)nc23)c1 (stereo not drawn) [Example C098, N-(3-(2-((4-(3-hydroxypyrrolidin-1-yl)phenyl)amino)quinazolin-8-yl)phenyl)acrylamide] has an inhibition at 0.041 µM (EGFR (ErbB1)) of under 50%, an inhibition at 0.0137 µM (EGFR (ErbB1) T790M L858R) of under 50% and an IC50 (H1975 cells) of under 100 nM.

C=CC(=O)Nc1ccc(C#N)c(-c2cccc3cnc(Nc4ccc(N5CCN(C)CC5)cc4)nc23)c1 [Example C100, N-(4-cyano-3-(2-((4-(4-methylpiperazin-1-yl)phenyl)amino)quinazolin-8-yl)phenyl)acrylamide] gave an inhibition at 0.041 µM (EGFR (ErbB1)) of under 50%, an inhibition at 0.0137 µM (EGFR (ErbB1) T790M L858R) of under 50% and an IC50 (H1975 cells) of over 500 nM.

Work on C=CC(=O)Nc1cccc(-c2cccc3cnc(Nc4ccc(N5CCN(C)CC5)cc4)nc23)c1C(=O)OC [Example C101, methyl 2-acrylamido-6-(2-((4-(4-methylpiperazin-1-yl)phenyl)amino)quinazolin-8-yl)benzoate] yielded an inhibition at 0.041 µM (EGFR (ErbB1)) of under 50%, an inhibition at 0.0137 µM (EGFR (ErbB1) T790M L858R) of over 50% and an IC50 (H1975 cells) of under 100 nM.

Compound C=CC(=O)Nc1cccc(-c2cccc3cnc(Nc4ccc(N5CCCOCC5)cc4)nc23)c1 [Example C102, N-(3-(2-((4-(1,4-oxazepan-4-yl)phenyl)amino)quinazolin-8-yl)phenyl)acrylamide] has an inhibition at 0.041 µM (EGFR (ErbB1)) of under 50%, an inhibition at 0.0137 µM (EGFR (ErbB1) T790M L858R) of under 50% and an IC50 (H1975 cells) of under 100 nM.

In the case of C=CC(=O)Nc1cccc(-c2cccc3cnc(Nc4ccc(N5CCN(C)CC5)cc4C(=O)OC)nc23)c1 [Example C104, methyl 2-((8-(3-acrylamidophenyl)quinazolin-2-yl)amino)-5-(4-methylpiperazin-1-yl)benzoate], the inhibition at 0.041 µM (EGFR (ErbB1)) is reported as under 50%, the inhibition at 0.0137 µM (EGFR (ErbB1) T790M L858R) is reported as under 50% and the IC50 (H1975 cells) is reported as over 500 nM.

With C=CC(=O)Nc1cccc(-c2cccc3cnc(Nc4ccc(N[C@H]5CCN(C(C)=O)C5)cc4)nc23)c1 [Example C128, (S)-N-(3-(2-((4-((1-acetylpyrrolidin-3-yl)amino)phenyl)amino)quinazolin-8-yl)phenyl)acrylamide] the inhibition at 0.041 µM (EGFR (ErbB1)) was under 50%, the inhibition at 0.0137 µM (EGFR (ErbB1) T790M L858R) was under 50% and the IC50 (H1975 cells) was under 100 nM.

In the case of C=CC(=O)Nc1cccc(-c2cccc3cnc(Nc4ccc(N[C@@H]5CCN(C(C)=O)C5)cc4)nc23)c1 [Example C130, (R)-N-(3-(2-((4-((1-acetylpyrrolidin-3-yl)amino)phenyl)amino)quinazolin-8-yl)phenyl)acrylamide], the inhibition at 0.041 µM (EGFR (ErbB1)) is reported as under 50%, the inhibition at 0.0137 µM (EGFR (ErbB1) T790M L858R) is reported as under 50% and the IC50 (H1975 cells) is reported as under 100 nM.

For C=CC(=O)Nc1cccc(-c2cccc3cnc(Nc4ccc(O[C@H]5CCN(C(C)=O)C5)cc4)nc23)c1 [Example C131, (S)-N-(3-(2-((4-((1-acetylpyrrolidin-3-yl)oxy)phenyl)amino)quinazolin-8-yl)phenyl)acrylamide], the inhibition at 0.041 µM (EGFR (ErbB1)) was under 50%, the inhibition at 0.0137 µM (EGFR (ErbB1) T790M L858R) was under 50% and the IC50 (H1975 cells) was under 100 nM.
